Source: US3953449A, “2-(4-M-CF3 or -SCF3 phenylpiperazino)-ethyl benzoates” (priority 1973, dated 1976)
Like-named read-outs stand apart in the source and are kept apart here.

Key:
[1] = Acute toxicity, 50% lethal dose (LD50), oral administration, mice; settings: mouse, in vivo, Swiss mice of the CDl strain, both sexes, calculated graphically
Procedure: The tests were carried out on Swiss mice of the CDl strain, of both sexes, and the 50% lethal doses (LD50) were calculated graphically.

[2] = test system: pain induced in CDl mice by the intraperitoneal injection of acetic acid; experiment: Koster test: analgesic effect against pain induced by intraperitoneal injection of acetic acid, oral administration; type: in vivo; settings: Mus musculus, read-out: Analgesic activity, Koster test ED50 (50% effective dose)
Source text: The analgesic effect was investigated in accordance with two conventional experimental procedures.

[3] = oral administration, CDl mice, acetic acid i.p.

COc1cc(C(=O)OCCN2CCN(c3cccc(C(F)(F)F)c3)CC2)cc(OC)c1OC [SLB 169, 2-(4-m-Trifluoromethylphenylpiperazino)-ethyl 3,4,5-trimethoxybenzoate]
LD50 [1]: 2200 mg/kg | ED50 [2, 3]: 15 mg/kg

CCCC(CCC)C(=O)OCCN1CCN(c2cccc(C(F)(F)F)c2)CC1 [SLB 198, 2-(4-m-Trifluoromethylphenyl-piperazino)-ethyl 2-n-propyl-pentanoate]
LD50 [1]: 2200 mg/kg | ED50 [2, 3]: 4.3 mg/kg

O=C(OCCN1CCN(c2cccc(C(F)(F)F)c2)CC1)c1ccccc1 [SLB 108, 2-(4-m-Trifluoromethylphenylpiperazino)-ethyl benzoate]
LD50 [1]: > 4000 mg/kg | ED50 ([2]; po): 10 mg/kg

Cc1c(N(C)C)c(=O)n(-c2ccccc2)n1C [Amidopyrine, reference compound]
ED50 [2, 3]: 40 mg/kg

CC(=O)OCCN1CCN(c2cccc(C(F)(F)F)c2)CC1 [SLB 093, 2-(4-m-Trifluoromethylphenylpiperazino)-ethyl acetate]
LD50 [1]: 925 mg/kg | ED50 [2, 3]: 3.5 mg/kg
